Source: patent publication US8987250B2 (Gilead Sciences, Inc., priority 2012, dated 2015)

Test system: HIV-IIIb
Assay: Test A: Antiviral Assay in MT4 Cells
Assay type: cell-based
Details: Human immunodeficiency virus 1, IIIB, MT4, 120 h, Table 2; MT-4 cells infected with HIV-IIIb, 5 days of incubation, CellTiter-Glo; read-out: EC50
Procedure, shortened: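 Read-out: CellTiter-Glo chemiluminescence after 5-day incubation at 37 °C. Compounds tested as 3-fold serial dilutions (10 concentrations, quadruplicate) in RPMI 1640 with 10% FBS, on MT-4 cells pre-infected at 37 °C with HIV-IIIb at 0.004 m.o.i.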

Structure (SMILES)	EC50 [nM]
Cc1cc2nc(-c3ccc4nn(C)cc4n3)sc2c(-c2ccc(Cl)cc2)c1[C@H](OC(C)(C)C)C(=O)O [Compound 366]	6
Cc1cc2nc(-c3ccc4c(cnn4C)n3)sc2c(-c2ccc(Cl)cc2)c1[C@H](OC(C)(C)C)C(=O)O [Compound 367]	6
Cc1cc2nc(-c3ccnc(-c4cc5cn(C)nc5cn4)c3)sc2c(-c2ccc(Cl)cc2)c1[C@H](OC(C)(C)C)C(=O)O [Compound 368]	5
Cc1cc2nc(-c3ccnc(-c4cc5cnn(C)c5cn4)c3)sc2c(-c2ccc(Cl)cc2)c1[C@H](OC(C)(C)C)C(=O)O [Compound 369]	8
Cc1cc2nc(-c3ccnc(-c4ccc5nn(C)cc5n4)c3)sc2c(-c2ccc(Cl)cc2)c1[C@H](OC(C)(C)C)C(=O)O [Compound 370]	4
Cc1cc2nc(-c3ccnc(-c4ccc5nn(C6COC6)cc5c4)c3)sc2c(-c2ccc(Cl)cc2)c1[C@H](OC(C)(C)C)C(=O)O [Compound 371]	7
Cc1cc2nc(-c3ccnc(-c4ccc5c(cnn5C5COC5)c4)c3)sc2c(-c2ccc(Cl)cc2)c1[C@H](OC(C)(C)C)C(=O)O [Compound 372]	7
CCCn1ncc2cc(-c3cc(-c4nc5cc(C)c([C@H](OC(C)(C)C)C(=O)O)c(-c6ccc(Cl)cc6)c5s4)ccn3)ccc21 [Compound 373]	37
Cc1cc2nc(-c3ccnc(-c4ccc5c(cnn5C(C)C)c4)c3)sc2c(-c2ccc(Cl)cc2)c1[C@H](OC(C)(C)C)C(=O)O [Compound 374]	45
Cc1cc2nc(-c3cc(-c4ccc5c(cnn5C)c4)ccn3)sc2c(-c2ccc(Cl)cc2)c1[C@H](OC(C)(C)C)C(=O)O [Compound 375]	228
Cc1cc2nc(-c3ccnc(-c4cnn(C)c4C)c3)sc2c(-c2ccc(Cl)cc2)c1[C@H](OC(C)(C)C)C(=O)O [Compound 376]	19
Cc1cc2nc(-c3cnc4c(c3)c(N3CCN(C)CC3)cn4C)sc2c(-c2ccc(Cl)cc2)c1[C@H](OC(C)(C)C)C(=O)O [Compound 377]	32
Cc1cc2nc(-c3cnc4c(c3)c(C3=CCN(C)CC3)cn4C)sc2c(-c2ccc(Cl)cc2)c1[C@H](OC(C)(C)C)C(=O)O [Compound 378]	51
Cc1cc2cc(-c3nc4cc(C)c([C@H](OC(C)(C)C)C(=O)O)c(-c5ccc(Cl)cc5)c4s3)cnc2[nH]1 [Compound 379]	15
Cc1cc2cc(-c3cc(-c4nc5cc(C)c([C@H](OC(C)(C)C)C(=O)O)c(-c6ccc(Cl)cc6)c5s4)ccn3)cnc2[nH]1 [Compound 380]	25
Cc1cc2nc(-c3cn(C)c4ncc(F)cc34)sc2c(-c2ccc(Cl)cc2)c1[C@H](OC(C)(C)C)C(=O)O [Compound 381]	47
Cc1cc2nc(-c3ccnc(-c4cn(C)c5ncc(F)cc45)c3)sc2c(-c2ccc(Cl)cc2)c1[C@H](OC(C)(C)C)C(=O)O [Compound 382]	91
Cc1cc2nc(-c3ccnc(-c4ccc5c(c4)c(N)nn5C)c3)sc2c(-c2ccc(Cl)cc2)c1[C@H](OC(C)(C)C)C(=O)O [Compound 383]	18
Cc1cc2nc(C3CC=Cc4nn(C)cc43)sc2c(-c2ccc(Cl)cc2)c1[C@H](OC(C)(C)C)C(=O)O (some centres unmarked) [Compound 384]	332
Cc1cnc2n(C)cc(-c3cc(-c4nc5cc(C)c([C@H](OC(C)(C)C)C(=O)O)c(-c6ccc(Cl)cc6)c5s4)ccn3)cc1-2 [Compound 385]	143

Structure (SMILES)	EC50 [nM]
Cc1cc2nc(-c3ccnc(-c4cnc5c(c4)c(C)cn5C)c3)sc2c(-c2ccc(Cl)cc2)c1[C@H](OC(C)(C)C)C(=O)O [Compound 386]	56
Cc1cc2nc(-c3cccc4c3cnn4C)sc2c(-c2ccc(Cl)cc2)c1[C@H](OC(C)(C)C)C(=O)O [Compound 387]	530
Cc1cc2nc(-c3cccc4c3OCC(=O)N4)sc2c(-c2ccc(Cl)cc2)c1[C@H](OC(C)(C)C)C(=O)O [Compound 388]	28
Cc1cc2nc(-c3ccnc(-c4ccc5c(c4)OCC(=O)N5C)c3)sc2c(-c2ccc(Cl)cc2)c1[C@H](OC(C)(C)C)C(=O)O [Compound 389]	7
Cc1cc2nc(-c3ccnc(-c4cccc5c4OCC(=O)N5C)c3)sc2c(-c2ccc(Cl)cc2)c1[C@H](OC(C)(C)C)C(=O)O [Compound 390]	9
Cc1cc2nc(-c3ccnc(-c4ccc5c(c4)OCC(=O)N5)c3)sc2c(-c2ccc(Cl)cc2)c1[C@H](OC(C)(C)C)C(=O)O [Compound 391]	11
Cc1cc2nc(-c3ccnc(-c4cccc5c4OCC(=O)N5)c3)sc2c(-c2ccc(Cl)cc2)c1[C@H](OC(C)(C)C)C(=O)O [Compound 392]	27
Cc1cc2nc(-c3ccnc(-c4ccc5c(c4)N(C)C(=O)CO5)c3)sc2c(-c2ccc(Cl)cc2)c1[C@H](OC(C)(C)C)C(=O)O [Compound 393]	33
Cc1cc2nc(-c3ccnc(-c4ccc5c(c4)NC(=O)CO5)c3)sc2c(-c2ccc(Cl)cc2)c1[C@H](OC(C)(C)C)C(=O)O [Compound 394]	25
Cc1cc2nc(-c3cccc(-c4ccc5c(n4)N(C)CCO5)c3)sc2c(-c2ccc(Cl)cc2)c1[C@H](OC(C)(C)C)C(=O)O [Compound 395]	61
Cc1cc2nc(-c3ccnc(-c4cnc5c(c4)OCCN5C)c3)sc2c(-c2ccc(Cl)cc2)c1[C@H](OC(C)(C)C)C(=O)O [Compound 396]	10
Cc1cc2nc(-c3ccnc(-c4ccc5c(c4)CCN5C)c3)sc2c(-c2ccc(Cl)cc2)c1[C@H](OC(C)(C)C)C(=O)O [Compound 397]	32
Cc1cc2nc(-c3ccnc(-c4cccc5c4CCN5C)c3)sc2c(-c2ccc(Cl)cc2)c1[C@H](OC(C)(C)C)C(=O)O [Compound 398]	36
Cc1cc2nc(-c3ccnc(-c4ccc5c(c4)N(C)CC5)c3)sc2c(-c2ccc(Cl)cc2)c1[C@H](OC(C)(C)C)C(=O)O [Compound 399]	43
Cc1cc2nc(-c3ccnc(-c4ccc5c(c4)OCCN5C)c3)sc2c(-c2ccc(Cl)cc2)c1[C@H](OC(C)(C)C)C(=O)O [Compound 400]	16
Cc1cc2nc(-c3ccnc(-c4ccc5c(c4)C(=O)N(C)CCO5)c3)sc2c(-c2ccc(Cl)cc2)c1[C@H](OC(C)(C)C)C(=O)O [Compound 401]	23
COc1ncc(-c2cc(-c3nc4cc(C)c([C@H](OC(C)(C)C)C(=O)O)c(-c5ccc(Cl)cc5)c4s3)ccn2)cn1 [Compound 402]	35
CCOc1ncc(-c2cc(-c3nc4cc(C)c([C@H](OC(C)(C)C)C(=O)O)c(-c5ccc(Cl)cc5)c4s3)ccn2)cn1 [Compound 403]	42
Cc1cc2nc(-c3ccnc(-c4ccc5c(c4)N(C)CCO5)c3)sc2c(-c2ccc(Cl)cc2)c1[C@H](OC(C)(C)C)C(=O)O [Compound 404]	41
Cc1cc2nc(-c3ccnc(-c4cnc5c(c4)ncn5C)c3)sc2c(-c2ccc(Cl)cc2)c1[C@H](OC(C)(C)C)C(=O)O [Compound 405]	37

Structure (SMILES)	EC50 [nM]
Cc1cc2nc(-c3ccnc(-c4cnc5ncn(C)c5c4)c3)sc2c(-c2ccc(Cl)cc2)c1[C@H](OC(C)(C)C)C(=O)O [Compound 406]	149
Cc1cc2nc(-c3ccnc(-c4ccc5c(c4)nnn5C)c3)sc2c(-c2ccc(Cl)cc2)c1[C@H](OC(C)(C)C)C(=O)O [Compound 407]	14
Cc1cc2nc(-c3ccnc(-c4cnn(C(C)(C)C)c4)c3)sc2c(-c2ccc(Cl)cc2)c1[C@H](OC(C)(C)C)C(=O)O [Compound 408]	27
Cc1cc2nc(-c3ccc4c(c3)nc(C)n4C3CC3)sc2c(-c2ccc(Cl)cc2)c1[C@H](OC(C)(C)C)C(=O)O [Compound 409]	10
Cc1cc2nc(-c3ccc4c(c3)nc(C)n4C(C)C)sc2c(-c2ccc(Cl)cc2)c1[C@H](OC(C)(C)C)C(=O)O [Compound 410]	9
Cc1cc2nc(-c3ccc4c(c3)nc(C(C)C)n4C)sc2c(-c2ccc(Cl)cc2)c1[C@H](OC(C)(C)C)C(=O)O [Compound 411]	8
Cc1cc2nc(-c3ccc4nc(C)n(C5CCOCC5)c4c3)sc2c(-c2ccc(Cl)cc2)c1[C@H](OC(C)(C)C)C(=O)O [Compound 412]	16
Cc1cc2nc(-c3ccc4nc(C)n(C5CCN(C)CC5)c4c3)sc2c(-c2ccc(Cl)cc2)c1[C@H](OC(C)(C)C)C(=O)O [Compound 413]	33
Cc1cc2nc(-c3ccc4ncn(C5CCN(C)CC5)c4c3)sc2c(-c2ccc(Cl)cc2)c1[C@H](OC(C)(C)C)C(=O)O [Compound 414]	32
Cc1cc2nc(-c3ccc4c(c3)ncn4C)sc2c(-c2ccc(Cl)cc2)c1[C@H](OC(C)(C)C)C(=O)O [Compound 415]	10
Cc1cc2nn(C)cc2cc1-c1cc(-c2nc3cc(C)c([C@H](OC(C)(C)C)C(=O)O)c(-c4ccc(Cl)cc4)c3s2)ccn1 [Compound 416]	25
Cc1cc2nc(-c3ccnc(-c4ccc5c(cnn5C)c4C)c3)sc2c(-c2ccc(Cl)cc2)c1[C@H](OC(C)(C)C)C(=O)O [Compound 417]	18
Cc1cc2nc(-c3ccnc(-c4ccc5nn(C)cc5c4C)c3)sc2c(-c2ccc(Cl)cc2)c1[C@H](OC(C)(C)C)C(=O)O [Compound 418]	11
Cc1cc2c(cnn2C)cc1-c1cc(-c2nc3cc(C)c([C@H](OC(C)(C)C)C(=O)O)c(-c4ccc(Cl)cc4)c3s2)ccn1 [Compound 419]	13
Cc1cc2[nH]ncc2cc1-c1cc(-c2nc3cc(C)c([C@H](OC(C)(C)C)C(=O)O)c(-c4ccc(Cl)cc4)c3s2)ccn1 [Compound 420]	14
Cc1cc2nc(-c3ccnc(-c4ccc5[nH]ncc5c4C)c3)sc2c(-c2ccc(Cl)cc2)c1[C@H](OC(C)(C)C)C(=O)O [Compound 421]	20
Cc1cc2nc(-c3ccnc(-c4cc(C)c5[nH]ncc5c4)c3)sc2c(-c2ccc(Cl)cc2)c1[C@H](OC(C)(C)C)C(=O)O [Compound 422]	32
Cc1cc2nc(-c3ccc4cnccc4c3)sc2c(-c2ccc(Cl)cc2)c1[C@H](OC(C)(C)C)C(=O)O [Compound 427]	14
Cc1cc2nc(-c3ccc4c(c3)c(-c3cnccn3)nn4C)sc2c(-c2ccc(Cl)cc2)c1[C@H](OC(C)(C)C)C(=O)O [Compound 428]	7
